In the supplement of paper PMC10307832:

Assays:
Assay in all cases: relative viability (nuclei count vs DMSO), 5 days (fraction); higher = more cells survive
[1] = system: 201T
Method in brief: (§1)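 Five library-drug doses in √10 steps were combined with a fixed anchor-drug dose, or a single drug was given alone, by pin tool to lung cancer cell lines in 1536-well plates the day after seeding. Nuclei were stained and counted after 5 days. Relative viability is the nuclei count in treated wells over that in vehicle wells, taken as the median of duplicate plates.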

[2] = system: COR-L23
Method in brief: as §1

[3] = system: NCI-H441
Method in brief: as §1

[4] = system: COR-L 105
Method in brief: as §1

[5] = system: RERF-LC-KJ
Method in brief: as §1

[6] = system: HCC-827
Method in brief: as §1

[7] = system: NCI-H1915
Method in brief: as §1

[8] = system: LK-2
Method in brief: as §1

[9] = system: PC-3 [JPC-3]
Method in brief: as §1

[10] = system: NCI-H1648
Method in brief: as §1

[11] = system: LU99A
Method in brief: as §1

[12] = system: NCI-H1734
Method in brief: as §1

[13] = system: HCC-366
Method in brief: as §1

[14] = system: NCI-H1650
Method in brief: as §1

[15] = system: NCI-H661
Method in brief: as §1

[16] = system: BEN
Method in brief: as §1

[17] = system: NCI-H1755
Method in brief: as §1

[18] = system: LC-2-ad
Method in brief: as §1

[19] = system: NCI-H2347
Method in brief: as §1

[20] = system: HCC-15
Method in brief: as §1

[21] = system: NCI-H1944
Method in brief: as §1

[22] = system: HCC-78
Method in brief: as §1

[23] = system: SW 900
Method in brief: as §1

[24] = system: EKVX
Method in brief: as §1

Oc1nc(-c2ccc(C(F)(F)F)cc2)nc2c1CSCC2 [XAV939] + O=C(c1cc(Cc2n[nH]c(=O)c3ccccc23)ccc1F)N1CCN(C(=O)C2CC2)CC1 [Olaparib] (partner 8 µM)
relative viability ([1]; first compound 0.08 µM): 0.855 | relative viability ([1]; first compound 0.253 µM): 0.814 | relative viability ([1]; first compound 0.8 µM): 0.687 | relative viability ([1]; first compound 2.53 µM): 0.745 | relative viability ([2]; first compound 0.08 µM): 0.321 | relative viability ([2]; first compound 0.253 µM): 0.386 | relative viability ([2]; first compound 0.8 µM): 0.315 | relative viability ([2]; first compound 2.53 µM): 0.29 | relative viability ([3]; first compound 0.08 µM): 0.68 | relative viability ([3]; first compound 0.253 µM): 0.448 | relative viability ([3]; first compound 0.8 µM): 0.613 | relative viability ([3]; first compound 2.53 µM): 0.521 | relative viability ([4]; first compound 0.08 µM): 0.57 | relative viability ([4]; first compound 0.253 µM): 0.486 | relative viability ([4]; first compound 0.8 µM): 0.494 | relative viability ([4]; first compound 2.53 µM): 0.561 | relative viability ([5]; first compound 0.08 µM): 0.868 | relative viability ([5]; first compound 0.253 µM): 0.763 | relative viability ([5]; first compound 0.8 µM): 0.617 | relative viability ([5]; first compound 2.53 µM): 0.292 | relative viability ([6]; first compound 0.08 µM): 0.622 | relative viability ([6]; first compound 0.253 µM): 0.667 | relative viability ([6]; first compound 0.8 µM): 0.62 | relative viability ([6]; first compound 2.53 µM): 0.769 | relative viability ([7]; first compound 0.08 µM): 0.247 | relative viability ([7]; first compound 0.253 µM): 0.256 | relative viability ([7]; first compound 0.8 µM): 0.239 | relative viability ([7]; first compound 2.53 µM): 0.275 | relative viability ([8]; first compound 0.08 µM): 0.607 | relative viability ([8]; first compound 0.253 µM): 0.669 | relative viability ([8]; first compound 0.8 µM): 0.84 | relative viability ([8]; first compound 2.53 µM): 0.657 | relative viability ([9]; first compound 0.253 µM): 0.997 | relative viability ([9]; first compound 0.8 µM): 1.17 | relative viability ([9]; first compound 2.53 µM): 1.06 | relative viability ([10]; first compound 0.253 µM): 0.63 | relative viability ([10]; first compound 0.8 µM): 1.12 | relative viability ([10]; first compound 2.53 µM): 0.355 | relative viability ([11]; first compound 0.08 µM): 0.258 | relative viability ([11]; first compound 0.253 µM): 0.257 | relative viability ([11]; first compound 0.8 µM): 0.271 | relative viability ([11]; first compound 2.53 µM): 0.258 | relative viability ([12]; first compound 0.08 µM): 0.655 | relative viability ([12]; first compound 0.253 µM): 0.538 | relative viability ([12]; first compound 0.8 µM): 0.673 | relative viability ([12]; first compound 2.53 µM): 0.602 | relative viability ([13]; first compound 0.08 µM): 0.414 | relative viability ([13]; first compound 0.253 µM): 0.326 | relative viability ([13]; first compound 0.8 µM): 0.283 | relative viability ([13]; first compound 2.53 µM): 0.175 | relative viability ([14]; first compound 0.08 µM): 0.762 | relative viability ([14]; first compound 0.253 µM): 0.633 | relative viability ([14]; first compound 0.8 µM): 0.749 | relative viability ([14]; first compound 2.53 µM): 0.61 | relative viability ([15]; first compound 0.08 µM): 0.743 | relative viability ([15]; first compound 0.253 µM): 0.655 | relative viability ([15]; first compound 0.8 µM): 0.678 | relative viability ([15]; first compound 2.53 µM): 0.708 | relative viability ([16]; first compound 0.08 µM): 1.14 | relative viability ([16]; first compound 0.253 µM): 1.04 | relative viability ([16]; first compound 0.8 µM): 1.02 | relative viability ([16]; first compound 2.53 µM): 0.845 | relative viability ([17]; first compound 0.08 µM): 0.798 | relative viability ([17]; first compound 0.253 µM): 0.767 | relative viability ([17]; first compound 0.8 µM): 0.816 | relative viability ([17]; first compound 2.53 µM): 0.733 | relative viability ([18]; first compound 0.08 µM): 0.659 | relative viability ([18]; first compound 0.253 µM): 0.652 | relative viability ([18]; first compound 0.8 µM): 0.685 | relative viability ([18]; first compound 2.53 µM): 0.553 | relative viability ([19]; first compound 0.08 µM): 0.667 | relative viability ([19]; first compound 0.253 µM): 0.543 | relative viability ([19]; first compound 0.8 µM): 0.569 | relative viability ([19]; first compound 2.53 µM): 0.517 | relative viability ([20]; first compound 0.08 µM): 0.693 | relative viability ([20]; first compound 0.253 µM): 0.717 | relative viability ([20]; first compound 0.8 µM): 0.67 | relative viability ([20]; first compound 2.53 µM): 0.676 | relative viability ([21]; first compound 0.08 µM): 0.421 | relative viability ([21]; first compound 0.253 µM): 0.279 | relative viability ([21]; first compound 0.8 µM): 0.365 | relative viability ([21]; first compound 2.53 µM): 0.342 | relative viability ([22]; first compound 0.08 µM): 0.843 | relative viability ([22]; first compound 0.253 µM): 0.821 | relative viability ([22]; first compound 0.8 µM): 0.713 | relative viability ([22]; first compound 2.53 µM): 0.592 | relative viability ([23]; first compound 0.253 µM): 0.844 | relative viability ([23]; first compound 0.8 µM): 0.832 | relative viability ([23]; first compound 2.53 µM): 0.421 | relative viability ([24]; first compound 0.08 µM): 0.929 | relative viability ([24]; first compound 0.253 µM): 0.514 | relative viability ([24]; first compound 0.8 µM): 0.65 | relative viability ([24]; first compound 2.53 µM): 0.378
